PubChem BioAssay AID1918938 (Molecular Pharmacology Branch, DTP, NCI, 2023)

System: 556581-035-R-J1-PDC complex spheroid viability
Assay: Anticancer human tumor 556581-035-R-J1-PDC patient-derived ovarian carcinoma cell line growth inhibition
Details: for IC50: curve of first compound; for viability, T/C: stronger effect = lower value
Summary of the method: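 Complex spheroids of tumor cells with HUVEC and human MSCs, exposed to iadademstat combined with other agents. Each agent tested in half-log steps from near clinical Cmax (else 10 microM top), DMSO ≤0.25%.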

[1] = second compound 0.1 µM, first compound 0.0316 µM
[2] = second compound 0.1 µM, first compound 0.1 µM
[3] = second compound 0.1 µM, first compound 0.316 µM
[4] = second compound 0.1 µM, first compound 1 µM
[5] = second compound 0.316 µM, first compound 0.0316 µM
[6] = second compound 0.316 µM, first compound 0.1 µM
[7] = second compound 0.316 µM, first compound 0.316 µM
[8] = second compound 0.316 µM, first compound 1 µM
[9] = second compound 1 µM, first compound 0.0316 µM
[10] = second compound 1 µM, first compound 0.1 µM
[11] = second compound 1 µM, first compound 0.316 µM
[12] = second compound 1 µM, first compound 1 µM
[13] = second compound 3.16 µM, first compound 0.0316 µM
[14] = second compound 3.16 µM, first compound 0.1 µM
[15] = second compound 3.16 µM, first compound 0.316 µM
[16] = second compound 3.16 µM, first compound 1 µM
[17] = second compound 10 µM, first compound 0.0316 µM
[18] = second compound 10 µM, first compound 0.1 µM
[19] = second compound 10 µM, first compound 0.316 µM
[20] = second compound 10 µM, first compound 1 µM
[21] = second compound 0.1 µM, first compound 0.00949 µM
[22] = second compound 0.1 µM, first compound 0.03 µM
[23] = second compound 0.1 µM, first compound 0.0949 µM
[24] = second compound 0.1 µM, first compound 0.3 µM
[25] = second compound 0.316 µM, first compound 0.00949 µM
[26] = second compound 0.316 µM, first compound 0.03 µM
[27] = second compound 0.316 µM, first compound 0.0949 µM
[28] = second compound 0.316 µM, first compound 0.3 µM
[29] = second compound 1 µM, first compound 0.00949 µM
[30] = second compound 1 µM, first compound 0.03 µM
[31] = second compound 1 µM, first compound 0.0949 µM
[32] = second compound 1 µM, first compound 0.3 µM
[33] = second compound 3.16 µM, first compound 0.00949 µM
[34] = second compound 3.16 µM, first compound 0.03 µM
[35] = second compound 3.16 µM, first compound 0.0949 µM
[36] = second compound 3.16 µM, first compound 0.3 µM
[37] = second compound 10 µM, first compound 0.00949 µM
[38] = second compound 10 µM, first compound 0.03 µM
[39] = second compound 10 µM, first compound 0.0949 µM
[40] = second compound 10 µM, first compound 0.3 µM
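Further: spheroids exposed to agents for seven days.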
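Wherever viability, T/C is given: 100% = DMSO vehicle control wells.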

## CC1COCCN1c1cc(C2(S(C)(=N)=O)CC2)nc(-c2ccnc3[nH]ccc23)n1 (stereo not given) + NC1CC1c1ccc(-c2cccc(O)c2)cc1
Second compound 0.1 µM
  IC50: 5950 nM
Second compound 0.316 µM
  IC50: 5940 nM
Second compound 1 µM
  IC50: 5370 nM
Second compound 3.16 µM
  IC50: > 10000 nM
Second compound 10 µM
  IC50: > 10000 nM
[1]
  viability, T/C: 101%
[2]
  viability, T/C: 98.6%
[3]
  viability, T/C: 78.9%
[4]
  viability, T/C: 72.3%
Second compound 0.1 µM, first compound 3.16 µM
  viability, T/C: 52.5%
Second compound 0.1 µM, first compound 10 µM
  viability, T/C: 46.7%
[5]
  viability, T/C: 95.3%
[6]
  viability, T/C: 85.5%
[7]
  viability, T/C: 77.8%
[8]
  viability, T/C: 70.7%
Second compound 0.316 µM, first compound 3.16 µM
  viability, T/C: 52.6%
Second compound 0.316 µM, first compound 10 µM
  viability, T/C: 46.3%
[9]
  viability, T/C: 87.9%
[10]
  viability, T/C: 88.9%
[11]
  viability, T/C: 84.3%
[12]
  viability, T/C: 77.4%
Second compound 1 µM, first compound 3.16 µM
  viability, T/C: 53.7%
Second compound 1 µM, first compound 10 µM
  viability, T/C: 45.5%
[13]
  viability, T/C: 87.9%
[14]
  viability, T/C: 96%
[15]
  viability, T/C: 85.5%
[16]
  viability, T/C: 70.5%
Second compound 3.16 µM, first compound 3.16 µM
  viability, T/C: 54.2%
Second compound 3.16 µM, first compound 10 µM
  viability, T/C: 50.9%
[17]
  viability, T/C: 88.4%
[18]
  viability, T/C: 84.8%
[19]
  viability, T/C: 78.3%
[20]
  viability, T/C: 69.7%
Second compound 10 µM, first compound 3.16 µM
  viability, T/C: 51.3%
Second compound 10 µM, first compound 10 µM
  viability, T/C: 54.7%

## CCN(c1cc(-c2ccc(CN3CCOCC3)cc2)cc(C(=O)NCc2c(C)cc(C)[nH]c2=O)c1C)C1CCOCC1 + NC1CC1c1ccc(-c2cccc(O)c2)cc1
Second compound 0.1 µM
  IC50: 776 nM
Second compound 0.316 µM
  IC50: 732 nM
Second compound 1 µM
  IC50: 633 nM
Second compound 3.16 µM
  IC50: 466 nM
Second compound 10 µM
  IC50: 666 nM
[21]
  viability, T/C: 106%
[22]
  viability, T/C: 92.2%
[23]
  viability, T/C: 86.7%
[24]
  viability, T/C: 73.4%
Second compound 0.1 µM, first compound 0.949 µM
  viability, T/C: 42.5%
Second compound 0.1 µM, first compound 3 µM
  viability, T/C: 25.1%
[25]
  viability, T/C: 105%
[26]
  viability, T/C: 95.5%
[27]
  viability, T/C: 78.5%
[28]
  viability, T/C: 69.3%
Second compound 0.316 µM, first compound 0.949 µM
  viability, T/C: 42.7%
Second compound 0.316 µM, first compound 3 µM
  viability, T/C: 27.4%
[29]
  viability, T/C: 94.2%
[30]
  viability, T/C: 84.7%
[31]
  viability, T/C: 84.8%
[32]
  viability, T/C: 66.8%
Second compound 1 µM, first compound 0.949 µM
  viability, T/C: 40.5%
Second compound 1 µM, first compound 3 µM
  viability, T/C: 30.5%
[33]
  viability, T/C: 98.7%
[34]
  viability, T/C: 102%
[35]
  viability, T/C: 78%
[36]
  viability, T/C: 58.1%
Second compound 3.16 µM, first compound 0.949 µM
  viability, T/C: 39.4%
Second compound 3.16 µM, first compound 3 µM
  viability, T/C: 32.5%
[37]
  viability, T/C: 83.6%
[38]
  viability, T/C: 87.7%
[39]
  viability, T/C: 82.1%
[40]
  viability, T/C: 63.6%
Second compound 10 µM, first compound 0.949 µM
  viability, T/C: 44.6%
Second compound 10 µM, first compound 3 µM
  viability, T/C: 30.6%

## Nc1ncn(C2CC(O)C(CO)S2)c(=O)n1 (stereo not given) + NC1CC1c1ccc(-c2cccc(O)c2)cc1
Second compound 0.1 µM
  IC50: 37.5 nM
Second compound 0.316 µM
  IC50: 33.1 nM
Second compound 1 µM
  IC50: 34.7 nM
Second compound 3.16 µM
  IC50: 33.7 nM
Second compound 10 µM
  IC50: 28.8 nM
Second compound 0.1 µM, first compound 0.000949 µM
  viability, T/C: 86.7%
Second compound 0.1 µM, first compound 0.003 µM
  viability, T/C: 84.5%
[21]
  viability, T/C: 78.2%
[22]
  viability, T/C: 52%
[23]
  viability, T/C: 34.1%
[24]
  viability, T/C: 20.6%
Second compound 0.316 µM, first compound 0.000949 µM
  viability, T/C: 85.9%
Second compound 0.316 µM, first compound 0.003 µM
  viability, T/C: 80%
[25]
  viability, T/C: 88.1%
[26]
  viability, T/C: 52.4%
[27]
  viability, T/C: 27.9%
[28]
  viability, T/C: 22.4%
Second compound 1 µM, first compound 0.000949 µM
  viability, T/C: 80.5%
Second compound 1 µM, first compound 0.003 µM
  viability, T/C: 83.5%
[29]
  viability, T/C: 70%
[30]
  viability, T/C: 54.1%
[31]
  viability, T/C: 30.8%
[32]
  viability, T/C: 24%
Second compound 3.16 µM, first compound 0.000949 µM
  viability, T/C: 88.7%
Second compound 3.16 µM, first compound 0.003 µM
  viability, T/C: 93.6%
[33]
  viability, T/C: 73.7%
[34]
  viability, T/C: 52.6%
[35]
  viability, T/C: 33.1%
[36]
  viability, T/C: 25.4%
Second compound 10 µM, first compound 0.000949 µM
  viability, T/C: 82.2%
Second compound 10 µM, first compound 0.003 µM
  viability, T/C: 79.7%
[37]
  viability, T/C: 65.4%
[38]
  viability, T/C: 52%
[39]
  viability, T/C: 32.1%
[40]
  viability, T/C: 29.9%

## O=C(C=Cn1cnc(-c2cc(C(F)(F)F)cc(C(F)(F)F)c2)n1)NNc1cnccn1 + NC1CC1c1ccc(-c2cccc(O)c2)cc1
Second compound 0.1 µM
  IC50: 40.6 nM
Second compound 0.316 µM
  IC50: 51.3 nM
Second compound 1 µM
  IC50: 70.5 nM
Second compound 3.16 µM
  IC50: 73.4 nM
Second compound 10 µM
  IC50: 80.1 nM
Second compound 0.1 µM, first compound 0.00316 µM
  viability, T/C: 68%
Second compound 0.1 µM, first compound 0.01 µM
  viability, T/C: 63.7%
[1]
  viability, T/C: 52.4%
[2]
  viability, T/C: 38.5%
[3]
  viability, T/C: 16.9%
[4]
  viability, T/C: 6.78%
Second compound 0.316 µM, first compound 0.00316 µM
  viability, T/C: 74.5%
Second compound 0.316 µM, first compound 0.01 µM
  viability, T/C: 73.1%
[5]
  viability, T/C: 61.4%
[6]
  viability, T/C: 32.6%
[7]
  viability, T/C: 22.7%
[8]
  viability, T/C: 4.35%
Second compound 1 µM, first compound 0.00316 µM
  viability, T/C: 76.9%
Second compound 1 µM, first compound 0.01 µM
  viability, T/C: 74.2%
[9]
  viability, T/C: 72.3%
[10]
  viability, T/C: 40.1%
[11]
  viability, T/C: 17.2%
[12]
  viability, T/C: 10.3%
Second compound 3.16 µM, first compound 0.00316 µM
  viability, T/C: 73.1%
Second compound 3.16 µM, first compound 0.01 µM
  viability, T/C: 74.3%
[13]
  viability, T/C: 61%
[14]
  viability, T/C: 43.7%
[15]
  viability, T/C: 28%
[16]
  viability, T/C: 8%
Second compound 10 µM, first compound 0.00316 µM
  viability, T/C: 71.3%
Second compound 10 µM, first compound 0.01 µM
  viability, T/C: 77.7%
[17]
  viability, T/C: 56.5%
[18]
  viability, T/C: 52.3%
[19]
  viability, T/C: 20.2%
[20]
  viability, T/C: 13.4%
